Experimental data taken from patent US7776917B2, “Non-standard amino acid conjugates of amphetamine and processes for making and using the same” (priority 2006, dated 2010).
Like-named read-outs stand apart in the source and are kept apart here.

Tests used:
[1] = Intranasal PK study d-amphetamine, hArg-Amp, Orn-Amp (Example 10); conditions: […] equivalent, n=5, d-amphetamine in plasma, given in minutes
[2] = Intravenous PK study d-amphetamine, hArg-Amp, Orn-Amp (Example 11); conditions: […] equivalent, n=5, d-amphetamine in plasma
[3] = Average results of 4 oral PK studies, Lys-Amp vs hArg-Amp (Example 7); conditions: average of 4 oral studies, n=20; Lys-Amp = 100%
[4] = Oral PK study Lys-Amp, hArg-Amp, Orn-Amp, Cit-Amp (Example 9); conditions: in words
[5] = oral; hArg-Amp = 100%
[6] = Parenteral (intranasal, intravenous) administration of hArg-Amp, release of amphetamine (Example 1); conditions: parenteral routes (intranasal, intravenous)

For `C[C@H](N)Cc1ccccc1` [d-amp, d-amphetamine], the Tmax [1] was 15 m and the Tmax [2] was 15 m.

With l-lysine-d-amphetamine [Lys-Amp] the “% Tmax” value [3] was 100%.

In the case of “l-citrulline-d-amphetamine hydrochloride [Cit-Amp]”, the “Tmax compared to Lys-Amp” value [4] is reported as “significantly shifted the Tmax”.

With `C[C@@H](Cc1ccccc1)NC(=O)[C@@H](N)CCCCN=C(N)N.Cl.Cl` [hArg-Amp, l-homoarginine-d-amphetamine Dihydrochloride] the “% Tmax” value [5] was 100% and the release of amphetamine [6] was < 50%.
